# US12539279B2, “Supramolecular ionizable lipid molecules with heteroatomic tuning for nucleic acid delivery” (priority 2023, dated 2026)
# “Also recorded” adds a separate entry of the source. Like-named read-outs stand apart in the source and are kept apart here.
# How the values were obtained:
# [1] = assay type: physicochemical
# Experimental: Determination of the apparent pKa of LNPs was carried out using a TNS assay. Briefly, a series of buffers was generated by titrating a solution containing 10 mM citrate, 10 mM phosphate, 10 mM borate, and 150 mM NaCl with 1.0 M HCl. Aliquots of this combined buffer were taken to generate 12 total buffers ranging from pH 4.0 to 9.5 in increments of 0.5 pH. LNPs (diluted to 100 uM of ionizable lipid in distilled water) and 6-(p-toluidino)-2-naphthalenesulfonic acid (TNS, Sigma Aldrich, 60 uM in distilled water) were diluted into these buffers to a final concentration of 9 and 5.45 μM, respectively. The plate was covered and equilibrated at room temperature for 20 min. Fluorescence intensity was determined using a BioTek H1 Synergy plate reader (325 nm excitation/435 nm emission). The raw fluorescence values were fit using GraphPad Prism 8 to determine pKa, which corresponds to the pH value at 50% max fluorescence.
# [2] = test system: firefly luciferase protein expression; assay: Intramuscular expression profile of formulated firefly luciferase mRNA in mice (IVIS); assay type: in vivo, BALB/c mice; conditions: intramuscular firefly luciferase mRNA-LNP
# Experimental: (§1) All procedures used in animal studies conducted at the University of Toronto were approved by Institutional Animal Care and Use committee (IACUC) under protocol number 20012621 and comply with all applicable local, provincial, and federal regulations. Female BALB/c mice (7-8 weeks old) were purchased from Charles River Laboratories and acclimated for 1 to 2 weeks before initiation of the study.
# Mice (n=4) were injected in both quadriceps with 0.5 μg of formulated firefly luciferase mRNA in 50 μL. At various timepoints (6 hours, 24 hours, 48 hours, and 96 hours post-dose), mice were injected intraperitoneally with 3 mg D-Luciferin (Thermo Scientific 88291) in 200 μL 1×PBS. 5 minutes later, mice were anesthetized and imaged on an in vivo imaging system (PerkinElmer, IVIS Spectrum) to measure total bioluminescent flux (photons/second) in each hindlimb (FIG. 2). The area under curve (AUC) for individual hindlimbs was determined with GraphPad Prism 9.
# [3] = mRNA encapsulation efficiency (modified Quant-iT RiboGreen assay); assay type: physicochemical; conditions: LNP before freezing
# Experimental: For LNPs encapsulating mRNA, mRNA concentration and encapsulation efficiency were determined using a modified Quant-iT RiboGreen assay (Invitrogen). The assay was performed in triplicates in a 96 well plate. 12 μL of the LNP sample or TE buffer (composed of 10 mM Tris-HCl containing 1 mM EDTA·Na2) (blank sample) was diluted in 300 μL of 1×TE buffer pH 7.5. 50 μL of the diluted samples were transferred to 6 separate wells and either 50 μL of TE buffer or 50 μL of a 4% Triton X-100 solution in TE buffer was added to the wells. Two 6-point standard curves ([…]) were prepared in the same plate by diluting Firefly luciferase mRNA to a final volume of 100 μL in 2% Triton X-100 or TE buffer. The plate was then incubated for 10 min at 40° C. with gentle shaking. The Ribogreen reagent was diluted 1:100 in TE buffer, and 100 μL of this solution was added to each well. […] Fluorescence intensity was measured with a plate reader at an excitation wavelength of 480 nm and an emission wavelength of 525 nm. The raw fluorescence values were subtracted by the background fluorescence (blank sample). The concentration of free mRNA and total mRNA were determined by linear interpolation of the appropriate standard curve. Encapsulation efficiency was determined by dividing the calculated concentration of encapsulated mRNA by the total mRNA concentration in the LNP sample.
# [4] = Pharmacokinetics after intramuscular injection of mRNA-LNPs in mice; assay type: in vivo, female CD-1 mice; conditions: for Kp / half-life / AUC(0-t) / Cmax: female; for half-life / AUC(0-t) / Cmax: CD-1; for half-life: I-12 estimate not considered accurate, read-out: estimated apparent half-life (t1/2) in plasma (converted); for AUC(0-t): read-out: Overall plasma exposure (AUC0-tlast); for Cmax: read-out: maximum plasma concentration (Cmax); for Overall tissue exposure (AUC0-tlast), liver: mouse liver; for Overall tissue exposure (AUC0-tlast), muscle: mouse muscle; for time of peak plasma level: 12.312 μg Compound I-12 or 12.764 μg Compound I-6; for Overall tissue exposure (AUC0-tlast), spleen: mouse spleen; for detection in urine: mouse urine
# Experimental: Pharmacokinetic studies in mice were conducted according to Transpharmation Canada Ltd. standard operating procedures (SOPs) and accepted scientific practices but was not in accordance with the principles of Good Laboratory Practice (GLP). Two studies were conducted and have been combined for analysis. Their objective was to determine the concentrations of two ionizable lipids, Compound I-12, and Compound I-6, in plasma, muscle, liver, spleen, urine, and feces following intramuscular (IM) injection of each lipid to groups of female CD-1 mice. All animals received an intramuscular injection of one of the lipids, formulated as lipid nanoparticles (LNPs) with mRNA, into the right quadricep. Doses administered IM were 12.312 μg of Compound I-12 and 12.764 μg of Compound I-6, corresponding to 0.5 μg of mRNA formulated in LNPs. Animals in study 1 were group housed in metabolic cages (n=3 per cage) and euthanized at 6 timepoints (3, 6, 12, 24, 48 and 96 hours) over 4 days-post injection for the collection of blood, liver, spleen, and muscle (n=3/time-point). A single pooled urine and feces sample was also collected from each cage at the appropriate time-point. In study 2, animals were housed in shoebox cages and samples (n=4/time-point) were collected at 6, 12, 24, 48, 96 and 168 hours (Compound I-12 and Compound I-6) and at 21 days (I-12 only, n=3) post-dose. A single pooled feces sample was also collected from each cage at the time of cage changes and weighed following terminal collections. Blood samples were divided for bioanalysis and diagnostic testing. Data from both studies was combined for data analysis. Tandem liquid chromatography-mass spectrometry (LC-MS/MS) methods were developed for the quantification of Compound I-12 and Compound I-6 in mouse plasma, muscle, liver, spleen, urine, and feces. The qualified methods were used to determine the concentration of the analytes in each matrix. The pharmacokinetics (PK) parameters for Compound I-12 and Compound I-6 were estimated from the plasma, muscle, liver, and spleen concentration versus time curves for each animal using Phoenix® WinNonlin 8.3 (Certara, Mountainview, CA).
# [5] = test system: firefly luciferase mRNA expression in liver, spleen, lungs, heart, kidneys; assay: Organ expression of firefly luciferase mRNA after intravenous injection in mice; assay type: in vivo, BALB/c mice; conditions: 6 hours post-dose; for organ in which the highest total flux was measured: intravenous 0.5 μg mRNA
# Experimental: as §1
# Mice (n=3) were injected intravenously (tail vein) with 0.5 μg of formulated firefly luciferase mRNA in 200 μL. At 6 hours post-dose, mice were injected intraperitoneally with 3 mg D-Luciferin (Thermo Scientific 88291) in 200 μL 1×PBS. 5 minutes later, mice were euthanized and key organs (liver, spleen, kidneys, lungs, and heart) were harvested and immediately imaged on an in vivo imaging system (PerkinElmer, IVIS Spectrum) to measure total bioluminescent flux (photons/second). LNPs formulated with compounds I-2, I-4, I-5, I-6, I-8 were tested for their ability to functionally deliver firefly luciferase mRNA to the major organs (liver, spleen, lungs, heart, kidneys) after intravenous injection and were compared to compounds I-12 and SM-102.
# [6] = assay type: physicochemical; conditions: for time required to have measurable levels of hydrolysis: 2.5 eq. KOH in d4-methanol, 1H NMR
# Experimental: Ionizable lipids including compounds described herein (2 μmol) were hydrolyzed with 2.5 eq. of KOH (200 μL, 0.025 M in d4-methanol) in a 3 mm NMR tube. 1H-NMR was acquired with a 700 MHz Agilent DD2 Spectrometer every 5 min for a total of 180 min. Additionally, spectra were acquired at 24 h, 48 h, 72 h, 144 h, 192 h, and 240 h for I-12, ALC-0315, and DLin-MC3-DMA. Data acquisition started ˜10 min after the start of the reaction due to sample preparation and tune/lock/shim. Ester peaks were integrated using MestReNova and normalized to value at t=0 min. The data series were fitted to a one phase decay exponential following y=e, where k is the rate of hydrolysis.
# [7] = CD-1, liver, mouse, IM mRNA-LNP, read-out: tissue/plasma AUC ratio, liver
# [8] = CD-1, muscle, mouse, IM mRNA-LNP, read-out: tissue/plasma AUC ratio, muscle
# [9] = CD-1, spleen, mouse, IM mRNA-LNP, read-out: tissue/plasma AUC ratio, spleen
compound,measurement,setting,value
CCCCCCCCCCN(CCCCCCCCCC)CCOC(=O)CCN(CCO)CCC(=O)OCCN(CCCCCCCCCC)CCCCCCCCCC [Compound I-1],Apparent pKa relative to amide analogue (Compound I-12 / F16),[1],significantly reduced
same,intramuscular expression (in words),[2],significantly reduced intramuscular expression
same,mRNA encapsulation efficiency relative to amide analogue (Compound I-12),[3],significantly reduced
CCCCCCCCCCN(CCCCCCCCCC)CCCOC(=O)CCCCN(CCO)CCCCC(=O)OCCCN(CCCCCCCCCC)CCCCCCCCCC [Compound I-6],Apparent pKa,[1],6-7
same,Kp,[4]; [7],46
same,Kp,[4]; [8],962
same,Kp,[4]; [9],59
same,half-life,"[4]; mouse plasma, IM mRNA-LNP",15.3 h
same,AUC(0-t),"[4]; mouse plasma, IM mRNA-LNP",1030 ng·h/mL
same,Cmax,"[4]; mouse plasma, IM mRNA-LNP",108 ng/mL
same,"Overall tissue exposure (AUC0-tlast), liver",[4]; IM mRNA-LNP,47.0 µg·h/g
same,"Overall tissue exposure (AUC0-tlast), muscle",[4]; IM mRNA-LNP,994 µg·h/g
same,time of peak plasma level,"[4]; mouse plasma, IM mRNA-LNP",3 h
same,"Overall tissue exposure (AUC0-tlast), spleen",[4]; IM mRNA-LNP,61.1 µg·h/g
same,detection in urine,[4]; IM mRNA-LNP,Neither Compound I-12 nor Compound I-6 were detected in urine
same,intramuscular expression (in words),[2],higher intramuscular expression than DLin-MC3-DMA; also recorded: highest intramuscular expression of all compounds tested
same,expression compared with SM-102 in spleen and liver,[5]; intravenous,higher expression than SM-102 in the spleen but not in the liver
same,expression in organs among the compounds related to this disclosure,[5]; intravenous,highest expression in all organs
same,fraction of expression in the spleen compared with SM-102,[5]; intravenous,higher fraction of expression in the spleen than SM-102
"CCCCCCCCCCCOC(=O)CCCCCN(CCO)CCCCCCCC(=O)OC(CCCCCCCC)CCCCCCCC [SM-102, reference compound]",time to complete degradation (base-catalyzed hydrolysis),[6]; 10 mM,≤ 180 min
same,organ in which the highest total flux was measured,[5],liver
CCCCCCCCCCN(CCCCCCCCCC)CCCOC(=O)CCCN(CCO)CCCC(=O)OCCCN(CCCCCCCCCC)CCCCCCCCCC [Compound I-4],Apparent pKa,[1],6-7
same,intramuscular expression (in words),[2],higher intramuscular expression than DLin-MC3-DMA
same,organ in which the highest total flux was measured,[5],liver
same,fraction of expression in the spleen compared with SM-102,[5]; intravenous,higher fraction of expression in the spleen than SM-102
CCCCCCCCCCN(CCCCCCCCCC)CCCOC(=O)CCN(CCO)CCC(=O)OCCCN(CCCCCCCCCC)CCCCCCCCCC [Compound I-2],organ in which the highest total flux was measured,[5],liver
same,fraction of expression in the spleen compared with SM-102,[5]; intravenous,higher fraction of expression in the spleen than SM-102
CCCCCCCCCCN(CCCCCCCCCC)CCCCOC(=O)CCCCN(CCO)CCCCC(=O)OCCCCN(CCCCCCCCCC)CCCCCCCCCC [Compound I-7],Apparent pKa,[1],6-7
same,intramuscular expression (in words),[2],higher intramuscular expression than DLin-MC3-DMA
CCCCC/C=C\C/C=C\CCCCCCCCC(CCCCCCCC/C=C\C/C=C\CCCCC)OC(=O)CCCN(C)C [DLin-MC3-DMA],time required to have measurable levels of hydrolysis,[6],10 days
CCCCCCCCCCN(CCCCCCCCCC)CCCCOC(=O)CCCN(CCO)CCCC(=O)OCCCCN(CCCCCCCCCC)CCCCCCCCCC [Compound I-5],Apparent pKa,[1],6-7
same,intramuscular expression (in words),[2],higher intramuscular expression than DLin-MC3-DMA
same,organ in which the highest total flux was measured,[5],spleen
same,fraction of expression in the spleen compared with SM-102,[5]; intravenous,higher fraction of expression in the spleen than SM-102
CCCCCCCCCCN(CCCCCCCCCC)CCCC(=O)OCCCN(CCO)CCCOC(=O)CCCN(CCCCCCCCCC)CCCCCCCCCC [Compound I-8],Apparent pKa,[1],6-7
same,"in vitro degradation rate, faster than Compound I-4",[6]; 10 mM,~50%
same,intramuscular expression (in words),[2],higher intramuscular expression than DLin-MC3-DMA
same,organ in which the highest total flux was measured,[5],liver
same,fraction of expression in the spleen compared with SM-102,[5]; intravenous,higher fraction of expression in the spleen than SM-102
CCCCCCCCCCN(CCCCCCCCCC)CCNC(=O)CCN(CCO)CCC(=O)NCCN(CCCCCCCCCC)CCCCCCCCCC [Compound I-12],time required to have measurable levels of hydrolysis,[6],10 days
same,Kp,[4]; [7],50
same,Kp,[4]; [8],236
same,Kp,[4]; [9],28
same,half-life,"[4]; mouse plasma, IM mRNA-LNP",295 h
same,AUC(0-t),"[4]; mouse plasma, IM mRNA-LNP",13800 ng·h/mL
same,Cmax,"[4]; mouse plasma, IM mRNA-LNP",348 ng/mL
same,"Overall tissue exposure (AUC0-tlast), liver",[4]; IM mRNA-LNP,694 µg·h/g
same,"Overall tissue exposure (AUC0-tlast), muscle",[4]; IM mRNA-LNP,3244 µg·h/g
same,"plasma AUC0-tlast, fold greater than Compound I-6","[4]; mouse plasma, IM mRNA-LNP",~13 fold
same,time of peak plasma level,"[4]; mouse plasma, IM mRNA-LNP",6 h
same,"Overall tissue exposure (AUC0-tlast), spleen",[4]; IM mRNA-LNP,391 µg·h/g
same,detection in urine,[4]; IM mRNA-LNP,Neither Compound I-12 nor Compound I-6 were detected in urine
same,excreted in feces,"[4]; mouse, after 21 days post-dose",Approximately 18%
same,organ in which the highest total flux was measured,[5],spleen
ALC-0315,time required to have measurable levels of hydrolysis,[6],10 days
